Entries after “also recorded” stand apart in the source; their conditions may differ. Where two headings read alike, the source gives them in different places.
Experiments:
[1] = target: T1, P23H opsin (Bos taurus, UniProt P02699, P23H); assay: Yield of folded P23H rhodopsin purified from P23H opsin expressing HEK293 cells, by spectrophotometry; assay type: cell-based, bovine; settings: for increase in P23H pigment over control: compound present during P23H opsin expression, 48 hours, β-ionone 10 μM; for increase in the yield of folded P23H rhodopsin: P23H opsin expressing cells treated with compound, versus no compound; for % Increase in P23H Yield (Table 1): compound concentration 100 μM, compared to control; for yield of folded P23H rhodopsin, in words: versus absence of the compound
T1 construct: expressed in transfected cells
Experimental: Wild-type (WT) and P23H expressing stable cell lines were generated in a commercially available cloning system, the Flp-In T-Rex System™ (Invitrogen). The stable cells were grown in DMEM high glucose media supplemented with 10% (vlv) fetal bovine serum, antibiotic antimycotic solution, […] blasticidin and hygromycin at 37° C. in presence of 5% CO2. For all the experiments the cells were allowed to reach confluence and were induced with 1 μg/ml tetracycline after change of media and then compounds were added. The plates were incubated for 48 h after which the cells were harvested.
For purification of rhodopsin 100 μM […] was added to a confluent plate of P23H cells after induction. […] Rhodopsin purification was essentially as described below for opsin purification with minor modifications. Briefly, the cells were harvested and washed with PBS followed by incubation with 50 μM 11-cis-retinal for 1.5 h at 4° C. The cells were then washed three times with PBS to remove excess retinal. Lysis, column binding and elution from the column were same as in case of opsin purification.
Stable cell lines expressing the P23H opsin were generated using Flp-In T-Rex system (Invitrogen) in HEK293 cell line. To create plasmids for constructing stable cell lines, an EcoRI-NotI fragment from the wild-type or P23H mutant synthetoc bovine opsin gene in pMT4 (see Kaushal et al., Biochemistry, Vol. 33, pp. 6121-6128 (1994) was combined with the large EcoRI-NotI fragment of pcDNA5/FRT/TO (Invitrogen). The resulting plasmids contain opsin under the control of a tetracycline-inducible human cytomegalovirus promoter and a flippase recognition sequence (FRT) for site sepecific recombination at the unique chromosomal FRT site of HEK293 Flp-In T-Rex. The opsin sequence in these plasmids was verified by PCR cycle sequencing. To construct stable cell lines, HEK293 Flp-In T-Rex cells were co-transfected with the flippase vector pOG44 (from Invitrogen) and the pcDNA5/FRT/TO vector or its derivatives containing the opsin gene. Stable recombinants were obtained by selecting for cells expressing resistance to hygromycin due to plasmid recombination at the FRT site. After the initial selection, the stable cell lines were routinely grown in the same media as HEK293 Flp-In T-rex, except that […].
The stable cells were grown in DMEM high glucose media supplemented with 10% (v/v) fetal bovine serum, antibiotic/antimycotic solution, 5 μg/ml blasticidin and hygromycin at 37° C. in presence of 5% CO2. For all the experiments the cells were allowed to reach confluence and were induced with 1 μg/mi tetracycline after change of media and then compounds were added. The plates were incubated for 48 h after which the cells were harvested.
The effect of the compounds on P23H rhodopsin yield was assessed by purifying and spectrophotormetrically determining the yield. After 48 hours of induction and treatment with compounds the cells were harvested and rhodopsin purified essentially as described in Noorwez et al. (2004). For purification of rhodopsin 100 μM NCI-45012 was added to a confluent plate of P23H cells after induction. […] Rhodopsin purification was essentially as described earlier for opsin purification with minor modifications. Briefly, the cells were harvested and washed with PBS followed by incubation with 50 μM 11-cis-retinal for 1.5 hours at 4° C., The cells were then washed three times with PBS to remove excess retinal. Lysis, column binding and elution from the column were the same as for opsin purification.
Compounds identified by computational modeling (see Example 1) were screened as described above. The effect of compounds on the yield of mutant rhodopsin was determined by spectrophotometry. […]

[2] = target: T1, P23H opsin; assay type: cell-based, bovine
Experimental: (§1) The P23H opsin producing cells were grown in 6-well plates and induced to produce P23H opsin. The DMSO solutions of the NCI compounds were individually added to separate wells at a final concentration of 100 μM. After incubation for 48 h cells were collected and washed with PBS. The cells were then lysed in PBSD by constantly rotating for 1 h at 4° C. The tubes were spun at 36000 rpm for […] and supernatant collected in fresh tubes. Total protein was quantified using a commercially available assay system, the DC protein assay (Biorad). Equal amounts of protein (10 μg) from different samples was loaded on 4-20% SDS polyacrylamide gels and total opsin quantified by western blotting.
as §1, with “the test” for “the NCI”, “1 hour” for “1 h”, “at 36,000” for “at 36000”, “using” for “using a commercially available assay system, the”, “blotting. Proteins were separated on SDS-PAGE gels and western blotted as described in Noorwez et at (2004).” for “blotting.”
Thus, a higher fraction of P23H molecules attain a stable conformation. […] This might also explain the difference in the degree of rescue obtained with these two pharmacological chaperones.

[3] = target: T2, WT opsin (Bos taurus, UniProt P02699); assay: Opsin regeneration and retinal competition: rate of 500 nm pigment formation of purified WT opsin with 11-cis-retinal; assay type: biochemical, bovine
Experimental: WT opsin producing cells were grown in 10 cm culture plates and induced for opsin production. After 48 hour of induction the cells were harvested and washed with PBS (10 mM sodium phosphate, 130 mM NaCl, pH 7.2). The cells were lysed in PBSD (PBS containing 1.0% DM and 1× protease inhibitor cocktail) for 1 hour and the lysate was added to 1D4 coupled sepharose beads and incubated for 1 hour at 4° C. The beads were washed 5 times in PBSD and twice with 10 mM sodium phosphate buffer containing 0.5% DM, pH 6.0. The bound WT opsin was eluted with a competing peptide representing the last 18 amino acids of rhodopsin in the latter buffer for 1 hour.
All the opsin regeneration and competition assays were performed under dim red light in a Cary 50 spectrophotometer (Varian) equipped with temperature control. 25 μM purified WT opsin was mixed with 50 μM 11-cis retinal and scanned every two minutes in the range of 250-650 nm until no more rhodopsin was regenerated. Similarly opsin was mixed with compound SN10011 (2 or 5 mM) and allowed to sit for 10 minutes on ice. […] The reactions were conducted in 100 μl total volume where the compounds were provided in 2 μl solution to 98 μl opsin solution. The temperature was maintained at 20° C.

[4] = target: T2, WT opsin; assay type: biochemical, bovine; settings: compound without 11-cis-retinal chromophore, in vitro
Experimental: The cells were washed after 48 h and rhodopsin purified without treating the cells with 11-cis-retinal under conditions that yield only folded rhodopsin (Noorwez et al. (2004)).

[5] = target: T1, P23H opsin; assay: Yield of folded P23H rhodopsin purified from P23H opsin expressing HEK293 cells, by spectrophotometry; assay type: cell-based, bovine; settings: 48 h, no 11-cis-retinal
[6] = system: T17M (Class II) mice; settings: cited from earlier work
[7] = system: P347S (Class I) mice; settings: cited from earlier work
[8] = in the presence of 11-cis-retinal

N#Cc1ccc2c(c1)OCO2 [NSC 27009, 3,4-Methylenedioxybenzonitrile]
% Increase in P23H Yield (Table 2) [1]: 20 ± 5%

CC1=C(/C=C/C(C)=C/C=C/C(C)=C/C=O)C(C)(C)CCC1 [11-cis-retinal, reference compound]
effectiveness of 11-cis-retinal relative to β-ionone in increasing cellular yields of P23H rhodopsin [1]: about 2 fold
increase in P23H pigment over control [1]: 5 fold
increase in yield of total opsin [2, 8]: 2.4 fold
yield of folded rhodopsin [2, 8]: 2.6 fold

CC(=O)c1c(C)n[nH]c1C [Compound 1, 1-(3,5-dimethyl-1H-pyrazol-4-yl)ethanone]
inhibition of opsin regeneration (pigment formation with 11-cis-retinal), in words ([3]; listed as SN10011): significant effect on inhibition of pigment formation; also recorded: inhibited
formation of a 500 nm absorbing pigment with purified WT opsin ([4]; listed as SN10011): No pigment was formed; also recorded: No 500 nm absorbing pigment was generated
% Increase in P23H Yield (Table 2) [1]: 30 ± 5%
increase in the yield of folded P23H rhodopsin [1]: 30%
% Increase in P23H Yield (Table 1) [1]: 31%
yield of folded P23H rhodopsin, in words [1]: increased yield of folded rhodopsin

CC(=O)/C=C/C1=C(C)CCCC1(C)C [β-ionone]
inhibition of opsin regeneration (pigment formation with 11-cis-retinal), in words [3]: inhibited opsin regeneration in a dose dependent manner
formation of a 500 nm absorbing pigment with purified WT opsin [4]: does not form a light absorbing pigment; also recorded: did not form a 500 nm absorbing pigment; also recorded: no 500 nm absorbing pigment was formed
increase in P23H pigment over control [1]: 2.5 fold
increase in yield of total opsin relative to no compound ([2]; P23H cells, β-ionone): 30%
pigment from P23H HEK cells treated with compound, purified without 11-cis-retinal treatment [5]: No pigment was detected; also recorded: No pigment was observed; also recorded: No pigment was generated

Oc1ccccc1C=Nn1cnnc1 [NSC 121968, 4-Salicylideneamino-1,2,4-triazol]
% Increase in P23H Yield (Table 2) [1]: 29 ± 5%

O=C1NC(CCO)C(=O)NC1CCO (centres unmarked) [Compound 5, 3,6-bis-(2-hydroxyethy)-piperazine-2,5-dione]
% Increase in P23H Yield (Table 2) [1]: 30 ± 10%
% Increase in P23H Yield (Table 1) [1]: 15%

Cn1cc(C(N)=O)ccc1=N [NSC 66688, 6-imino-1-methyl-1,6-dihydro-3-pyridinecarboxamine]
% Increase in P23H Yield (Table 2) [1]: 40 ± 9%

CC(C)N(CC#N)C(C)C [Compound 6, diisopropylaminoacetonitrile]
% Increase in P23H Yield (Table 2) [1]: 25 ± 3%
% Increase in P23H Yield (Table 1) [1]: 28%

C[C@@H]1CCC[C@H](C)C1 [cis-1,3-dimethylcyclohexane]
inhibition of opsin regeneration (pigment formation with 11-cis-retinal), in words [3]: much weaker inhibitor of opsin regeneration
increase in the yield of folded P23H rhodopsin [1]: 15%
yield of folded P23H rhodopsin, in words [1]: increased yield of folded P23H rhodopsin

N#Cc1cn(Cc2ccco2)c(=O)[nH]c1=O [Compound 2, 1-furan-2-ylmethyl-2,4-dioxo-1,2,3,4-tetrahydro-pyrimidine-5-carbonitrile]
% Increase in P23H Yield (Table 2) [1]: 40 ± 7%
% Increase in P23H Yield (Table 1) [1]: 43%

Cc1cc([N+](=O)[O-])ccn1 [Compound 4, 2-methyl-4-nitro-pyridine]
% Increase in P23H Yield (Table 2) [1]: 25 ± 8%
% Increase in P23H Yield (Table 1) [1]: 24%

O=[PH](O)c1ccccc1 [Compound 3, phenyl-phosphinic acid]
% Increase in P23H Yield (Table 2) [1]: 40 ± 3%
% Increase in P23H Yield (Table 1) [1]: 32%

CCCCCCCCCCCCCCCC(=O)OC/C=C(C)/C=C/C=C(C)/C=C/C1=C(C)CCCC1(C)C [vitamin A palmitate]
decrease in outer nuclear layer (ONL) thickness in treated animals [6]: 24%
decrease in the rate of decline in electroretinogram (ERG) a- and b-wave amplitudes [6]: 40-45%
changes in retinal degeneration on treatment [7]: no significant changes

Nn1nnc2ccccc21 [NSC 114498, 1H-1,2,3-benzotriazol-1-amine]
% Increase in P23H Yield (Table 2) [1]: 30 ± 6%
